From the kinase profiling compilation of Christmann-Franck et al. (2016)

Assays:
Assay in all cases: KINOMEscan competition binding
Conditions in all cases: compound 10.0 µM
TBK1 (human) = TBK1 (human) (UniProt Q9UHD2)
[1] = tested on: MET (human), P08581 [Y1235D]
MAP3K13 (human) = MAP3K13 (human) (UniProt O43283)
TNK2 (human) = TNK2 (human) (UniProt Q07912)
LIMK1 (human) = LIMK1 (human) (UniProt P53667)
[2] = tested on: ABL1 (human), P00519 [H396P]
CSNK1A1L (human) = CSNK1A1L (human) (UniProt Q8N752)
MST1R (human) = MST1R (human) (UniProt Q04912)
PIM2 (human) = PIM2 (human) (UniProt Q9P1W9)
MAP3K9 (human) = MAP3K9 (human) (UniProt P80192)
ABL1 (human) = ABL1 (human) (UniProt P00519)
PRKCH (human) = PRKCH (human) (UniProt P24723)
PIK3C2G (human) = PIK3C2G (human) (UniProt O75747)
PIP5K1A (human) = PIP5K1A (human) (UniProt Q99755)
SRC (human) = SRC (human) (UniProt P12931)
KIT (human) = KIT (human) (UniProt P10721)
MAPK13 (human) = MAPK13 (human) (UniProt O15264)
CSNK2A1 (human) = CSNK2A1 (human) (UniProt P68400)
MAP3K2 (human) = MAP3K2 (human) (UniProt Q9Y2U5)
MAPK9 (human) = MAPK9 (human) (UniProt P45984)
INSR (human) = INSR (human) (UniProt P06213)
MAPK14 (human) = MAPK14 (human) (UniProt Q16539)
FGFR3 (human) = FGFR3 (human) (UniProt P22607)
RPS6KA1 KD2 (human) = RPS6KA1 KD2 (human) (UniProt Q15418)
MAP3K5 (human) = MAP3K5 (human) (UniProt Q99683)
CSNK1G3 (human) = CSNK1G3 (human) (UniProt Q9Y6M4)
ERBB3 (human) = ERBB3 (human) (UniProt P21860)
MARK3 (human) = MARK3 (human) (UniProt P27448)
RET (human) = RET (human) (UniProt P07949)
MAP3K12 (human) = MAP3K12 (human) (UniProt Q12852)
PIK3C2B (human) = PIK3C2B (human) (UniProt O00750)
EIF2AK2 (human) = EIF2AK2 (human) (UniProt P19525)
NEK4 (human) = NEK4 (human) (UniProt P51957)
[3] = tested on: EGFR (human), P00533 [T790M]
TRPM6 (human) = TRPM6 (human) (UniProt Q9BX84)

Chain of ERBB3 (human) (P21860 whole entry, looked up): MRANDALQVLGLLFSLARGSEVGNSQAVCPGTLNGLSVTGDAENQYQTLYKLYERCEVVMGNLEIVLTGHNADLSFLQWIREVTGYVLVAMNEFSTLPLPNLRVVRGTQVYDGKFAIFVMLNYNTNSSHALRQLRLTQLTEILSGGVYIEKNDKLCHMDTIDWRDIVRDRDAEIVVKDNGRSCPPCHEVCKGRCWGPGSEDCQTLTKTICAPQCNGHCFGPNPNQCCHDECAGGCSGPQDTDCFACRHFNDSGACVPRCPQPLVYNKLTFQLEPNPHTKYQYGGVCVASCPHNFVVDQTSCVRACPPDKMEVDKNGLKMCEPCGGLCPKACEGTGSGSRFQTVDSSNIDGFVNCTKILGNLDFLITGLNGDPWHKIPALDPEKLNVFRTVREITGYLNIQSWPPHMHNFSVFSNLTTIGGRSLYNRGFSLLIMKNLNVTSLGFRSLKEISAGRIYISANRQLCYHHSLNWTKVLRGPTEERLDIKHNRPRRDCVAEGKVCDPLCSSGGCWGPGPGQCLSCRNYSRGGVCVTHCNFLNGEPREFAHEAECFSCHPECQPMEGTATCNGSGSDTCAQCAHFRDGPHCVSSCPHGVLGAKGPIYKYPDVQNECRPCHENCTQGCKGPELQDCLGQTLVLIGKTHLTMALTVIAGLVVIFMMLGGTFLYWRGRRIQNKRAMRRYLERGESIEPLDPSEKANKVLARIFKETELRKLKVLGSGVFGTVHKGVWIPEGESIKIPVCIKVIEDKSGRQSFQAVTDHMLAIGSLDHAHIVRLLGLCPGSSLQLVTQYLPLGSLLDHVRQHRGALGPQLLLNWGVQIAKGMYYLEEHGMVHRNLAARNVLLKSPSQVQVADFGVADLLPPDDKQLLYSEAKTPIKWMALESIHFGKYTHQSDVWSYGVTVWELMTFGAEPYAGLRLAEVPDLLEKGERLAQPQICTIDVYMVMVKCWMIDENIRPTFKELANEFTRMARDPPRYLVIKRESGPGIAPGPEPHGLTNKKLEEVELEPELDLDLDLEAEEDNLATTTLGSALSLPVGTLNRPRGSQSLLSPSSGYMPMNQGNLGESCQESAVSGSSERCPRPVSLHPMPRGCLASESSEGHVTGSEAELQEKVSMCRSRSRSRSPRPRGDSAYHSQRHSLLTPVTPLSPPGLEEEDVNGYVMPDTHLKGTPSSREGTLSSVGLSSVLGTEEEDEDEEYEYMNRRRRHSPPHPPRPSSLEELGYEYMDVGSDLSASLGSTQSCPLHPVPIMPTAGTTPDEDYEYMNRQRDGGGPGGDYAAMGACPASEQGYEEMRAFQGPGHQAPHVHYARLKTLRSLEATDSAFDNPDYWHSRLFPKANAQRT
Chain of KIT (human) (P10721 whole entry, looked up): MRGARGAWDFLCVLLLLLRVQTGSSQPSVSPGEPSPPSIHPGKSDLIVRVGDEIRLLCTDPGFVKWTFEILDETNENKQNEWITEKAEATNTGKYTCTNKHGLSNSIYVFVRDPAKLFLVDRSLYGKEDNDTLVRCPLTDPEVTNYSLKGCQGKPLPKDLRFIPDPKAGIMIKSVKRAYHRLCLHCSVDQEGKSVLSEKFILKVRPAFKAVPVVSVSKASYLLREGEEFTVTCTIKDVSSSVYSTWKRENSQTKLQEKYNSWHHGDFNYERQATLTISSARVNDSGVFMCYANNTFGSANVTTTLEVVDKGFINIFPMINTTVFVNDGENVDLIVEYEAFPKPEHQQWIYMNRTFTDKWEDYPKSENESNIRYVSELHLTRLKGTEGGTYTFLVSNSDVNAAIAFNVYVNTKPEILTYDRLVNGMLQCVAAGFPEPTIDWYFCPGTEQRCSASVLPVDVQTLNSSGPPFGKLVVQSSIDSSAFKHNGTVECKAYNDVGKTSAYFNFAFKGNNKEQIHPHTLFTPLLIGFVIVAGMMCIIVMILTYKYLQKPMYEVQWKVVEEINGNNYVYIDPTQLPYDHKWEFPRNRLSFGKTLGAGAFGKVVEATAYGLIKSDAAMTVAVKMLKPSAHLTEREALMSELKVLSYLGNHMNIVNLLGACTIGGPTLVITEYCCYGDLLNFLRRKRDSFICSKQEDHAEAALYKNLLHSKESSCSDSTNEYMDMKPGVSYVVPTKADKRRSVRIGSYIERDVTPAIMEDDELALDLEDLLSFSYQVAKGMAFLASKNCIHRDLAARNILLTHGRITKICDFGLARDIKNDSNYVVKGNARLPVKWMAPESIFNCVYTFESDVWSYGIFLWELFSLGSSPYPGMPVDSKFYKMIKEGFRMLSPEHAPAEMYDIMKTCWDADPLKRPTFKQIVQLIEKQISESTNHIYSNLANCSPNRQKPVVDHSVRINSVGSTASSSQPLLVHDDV
Chain of INSR (human) (P06213 whole entry, looked up): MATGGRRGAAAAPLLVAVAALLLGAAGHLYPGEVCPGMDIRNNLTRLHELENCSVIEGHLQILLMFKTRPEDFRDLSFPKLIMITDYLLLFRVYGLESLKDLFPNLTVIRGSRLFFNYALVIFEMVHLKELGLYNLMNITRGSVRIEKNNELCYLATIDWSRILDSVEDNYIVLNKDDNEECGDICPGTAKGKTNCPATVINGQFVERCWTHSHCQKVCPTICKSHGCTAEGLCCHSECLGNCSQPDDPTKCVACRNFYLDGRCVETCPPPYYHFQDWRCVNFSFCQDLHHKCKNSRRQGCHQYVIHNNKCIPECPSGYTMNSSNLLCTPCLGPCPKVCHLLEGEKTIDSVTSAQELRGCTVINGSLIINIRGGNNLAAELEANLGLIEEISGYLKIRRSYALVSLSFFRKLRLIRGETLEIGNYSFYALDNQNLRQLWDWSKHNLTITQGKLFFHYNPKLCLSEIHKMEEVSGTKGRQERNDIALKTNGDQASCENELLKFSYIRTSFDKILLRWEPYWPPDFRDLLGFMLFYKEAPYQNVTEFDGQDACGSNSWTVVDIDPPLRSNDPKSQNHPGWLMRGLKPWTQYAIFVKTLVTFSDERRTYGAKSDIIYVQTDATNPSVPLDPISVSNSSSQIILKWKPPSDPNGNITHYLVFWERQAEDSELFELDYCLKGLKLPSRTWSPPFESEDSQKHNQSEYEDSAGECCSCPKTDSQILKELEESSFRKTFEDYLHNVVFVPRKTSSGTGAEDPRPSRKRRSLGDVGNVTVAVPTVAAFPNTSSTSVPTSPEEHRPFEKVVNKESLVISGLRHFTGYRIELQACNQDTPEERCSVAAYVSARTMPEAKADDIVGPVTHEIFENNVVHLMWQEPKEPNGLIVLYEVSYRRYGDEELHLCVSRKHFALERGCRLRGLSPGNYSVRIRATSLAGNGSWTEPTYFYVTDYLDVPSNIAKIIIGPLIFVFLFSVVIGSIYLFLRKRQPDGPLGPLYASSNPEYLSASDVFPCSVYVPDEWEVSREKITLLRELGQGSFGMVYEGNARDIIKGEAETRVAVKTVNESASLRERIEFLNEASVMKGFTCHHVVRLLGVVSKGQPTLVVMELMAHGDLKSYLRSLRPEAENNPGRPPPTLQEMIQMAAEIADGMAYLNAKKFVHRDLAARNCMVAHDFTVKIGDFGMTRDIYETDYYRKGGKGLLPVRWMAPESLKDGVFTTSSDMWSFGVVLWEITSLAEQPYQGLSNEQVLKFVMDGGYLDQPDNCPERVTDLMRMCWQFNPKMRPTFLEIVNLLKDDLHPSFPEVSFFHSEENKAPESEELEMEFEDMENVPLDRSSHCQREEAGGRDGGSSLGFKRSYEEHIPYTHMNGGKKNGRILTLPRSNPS
Chain of MAPK9 (human) (P45984 whole entry, looked up): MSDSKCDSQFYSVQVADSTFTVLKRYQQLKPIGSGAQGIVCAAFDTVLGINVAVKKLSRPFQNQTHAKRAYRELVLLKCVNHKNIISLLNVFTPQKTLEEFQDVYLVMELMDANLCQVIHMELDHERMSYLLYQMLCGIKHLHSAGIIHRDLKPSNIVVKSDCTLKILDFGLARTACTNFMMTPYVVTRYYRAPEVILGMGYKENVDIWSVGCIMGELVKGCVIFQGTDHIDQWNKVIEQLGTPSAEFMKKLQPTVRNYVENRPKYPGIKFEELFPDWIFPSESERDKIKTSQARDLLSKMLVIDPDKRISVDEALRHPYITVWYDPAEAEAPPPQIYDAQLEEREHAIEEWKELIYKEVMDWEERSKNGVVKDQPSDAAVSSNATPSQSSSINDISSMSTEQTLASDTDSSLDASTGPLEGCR
Chain of MAP3K2 (human) (Q9Y2U5 whole entry, looked up): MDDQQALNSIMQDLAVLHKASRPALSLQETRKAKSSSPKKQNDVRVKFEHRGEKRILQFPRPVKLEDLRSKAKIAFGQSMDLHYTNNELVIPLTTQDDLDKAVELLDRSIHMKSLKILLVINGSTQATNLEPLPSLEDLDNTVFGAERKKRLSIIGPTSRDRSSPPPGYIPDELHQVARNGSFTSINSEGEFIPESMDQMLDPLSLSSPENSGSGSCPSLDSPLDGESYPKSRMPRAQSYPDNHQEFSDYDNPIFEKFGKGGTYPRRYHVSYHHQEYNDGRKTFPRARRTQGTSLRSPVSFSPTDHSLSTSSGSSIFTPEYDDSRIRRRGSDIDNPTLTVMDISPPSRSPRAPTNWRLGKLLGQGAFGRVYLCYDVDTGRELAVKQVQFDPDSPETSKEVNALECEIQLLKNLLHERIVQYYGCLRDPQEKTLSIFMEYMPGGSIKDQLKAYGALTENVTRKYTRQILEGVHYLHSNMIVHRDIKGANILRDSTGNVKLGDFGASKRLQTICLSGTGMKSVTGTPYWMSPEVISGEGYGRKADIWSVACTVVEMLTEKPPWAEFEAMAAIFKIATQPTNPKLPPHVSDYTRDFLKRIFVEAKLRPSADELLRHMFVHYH
Chain of CSNK1A1L (human) (Q8N752 whole entry, looked up): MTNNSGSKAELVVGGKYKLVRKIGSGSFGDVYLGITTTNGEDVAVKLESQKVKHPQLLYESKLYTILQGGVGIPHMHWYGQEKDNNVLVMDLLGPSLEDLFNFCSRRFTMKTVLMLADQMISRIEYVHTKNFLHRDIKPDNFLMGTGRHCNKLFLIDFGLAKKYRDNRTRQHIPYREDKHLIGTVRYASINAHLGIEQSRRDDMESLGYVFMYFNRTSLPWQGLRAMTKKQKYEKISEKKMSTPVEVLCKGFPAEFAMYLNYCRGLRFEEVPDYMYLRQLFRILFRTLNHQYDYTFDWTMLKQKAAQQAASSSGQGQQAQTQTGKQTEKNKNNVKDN

| Compound | kinase still bound, per cent of control (TNK2 (human)) [%] | kinase still bound, per cent of control (LIMK1 (human)) [%] | kinase still bound, per cent of control (CSNK1A1L (human)) [%] | kinase still bound, per cent of control (MST1R (human)) [%] | kinase still bound, per cent of control (PIM2 (human)) [%] | kinase still bound, per cent of control (MAP3K9 (human)) [%] | kinase still bound, per cent of control (ABL1 (human)) [%] | kinase still bound, per cent of control (PRKCH (human)) [%] | kinase still bound, per cent of control (PIP5K1A (human)) [%] | kinase still bound, per cent of control (SRC (human)) [%] | kinase still bound, per cent of control (KIT (human)) [%] | kinase still bound, per cent of control (MAPK13 (human)) [%] | kinase still bound, per cent of control (CSNK2A1 (human)) [%] | kinase still bound, per cent of control (MAPK9 (human)) [%] | kinase still bound, per cent of control (INSR (human)) [%] | kinase still bound, per cent of control (MAPK14 (human)) [%] | kinase still bound, per cent of control (FGFR3 (human)) [%] | kinase still bound, per cent of control (RPS6KA1 KD2 (human)) [%] | kinase still bound, per cent of control (MAP3K5 (human)) [%] | kinase still bound, per cent of control (CSNK1G3 (human)) [%] | further results |
| --- | --- | --- | --- | --- | --- | --- | --- | --- | --- | --- | --- | --- | --- | --- | --- | --- | --- | --- | --- | --- | --- |
| CCN(CC)CCCCNc1ncc2c(n1)N(C)C(=O)N(c1c(Cl)c(OC)cc(OC)c1Cl)C2 | 100 | 100 | 100 | 100 | 100 | 100 | 100 | 100 | 100 | 100 | 6.7 | 100 | 100 | 100 | 100 | 100 | 3.3 | 100 | 100 | 100 | kinase still bound, per cent of control (TBK1 (human)): 100%; kinase still bound, per cent of control [1]: 100%; kinase still bound, per cent of control (MAP3K13 (human)): 100%; kinase still bound, per cent of control [2]: 100%; kinase still bound, per cent of control (PIK3C2G (human)): 100%; kinase still bound, per cent of control (MAP3K2 (human)): 6.8%; kinase still bound, per cent of control (ERBB3 (human)): 100%; kinase still bound, per cent of control (MARK3 (human)): 100%; kinase still bound, per cent of control (RET (human)): 100%; kinase still bound, per cent of control (MAP3K12 (human)): 100%; kinase still bound, per cent of control (PIK3C2B (human)): 100%; kinase still bound, per cent of control (EIF2AK2 (human)): 100% |
| COc1cc(N2CCN(C)CC2)ccc1Nc1ncc2c(n1)N(C)c1ccccc1C(=O)N2C | 3.2 | 100 | 100 | 100 | 100 | 100 | 100 | 100 | 100 | 100 | 100 | 100 | 100 | 100 | 100 | 100 | 100 | 18 | 100 | 100 | kinase still bound, per cent of control (TBK1 (human)): 100%; kinase still bound, per cent of control [1]: 100%; kinase still bound, per cent of control (MAP3K13 (human)): 100%; kinase still bound, per cent of control [2]: 100%; kinase still bound, per cent of control (PIK3C2G (human)): 100%; kinase still bound, per cent of control (MAP3K2 (human)): 32%; kinase still bound, per cent of control (ERBB3 (human)): 100%; kinase still bound, per cent of control (MARK3 (human)): 100%; kinase still bound, per cent of control (RET (human)): 100%; kinase still bound, per cent of control (MAP3K12 (human)): 100%; kinase still bound, per cent of control (PIK3C2B (human)): 100%; kinase still bound, per cent of control (EIF2AK2 (human)): 100% |
| COc1cc2ncn(-c3cc(OCc4ccccc4C(F)(F)F)c(C(N)=O)s3)c2cc1OC | 54 | 79 | 78 | 100 | 100 | 71 | 60 | 100 | 3.4 | 64 | 30 | 100 | 30 | 78 | 84 | 100 | 20 | 63 | 87 | 100 | kinase still bound, per cent of control (TBK1 (human)): 83%; kinase still bound, per cent of control [1]: 40%; kinase still bound, per cent of control (MAP3K13 (human)): 100%; kinase still bound, per cent of control (NEK4 (human)): 52%; kinase still bound, per cent of control [3]: 100%; kinase still bound, per cent of control (PIK3C2G (human)): 100%; kinase still bound, per cent of control (MAP3K2 (human)): 100%; kinase still bound, per cent of control (TRPM6 (human)): 100%; kinase still bound, per cent of control (ERBB3 (human)): 100%; kinase still bound, per cent of control (MARK3 (human)): 78%; kinase still bound, per cent of control (RET (human)): 39%; kinase still bound, per cent of control (MAP3K12 (human)): 68%; kinase still bound, per cent of control (PIK3C2B (human)): 63%; kinase still bound, per cent of control (EIF2AK2 (human)): 78% |
| C=CC(=O)Nc1ccc(CN(C(=O)Nc2c(Cl)c(OC)cc(OC)c2Cl)c2cc(Nc3ccc(N4CCN(C)CC4)cc3)ncn2)cc1 | 1.7 | 100 | 100 | 100 | 100 | 12 | 16 | 100 | 100 | 6.6 | 0.3 | 4.9 | 100 | 100 | 24 | 100 | 4.5 | 100 | 100 | 100 | kinase still bound, per cent of control [2]: 20%; kinase still bound, per cent of control (MARK3 (human)): 100%; kinase still bound, per cent of control (RET (human)): 0.6%; kinase still bound, per cent of control (MAP3K12 (human)): 100%; kinase still bound, per cent of control (PIK3C2B (human)): 100%; kinase still bound, per cent of control (EIF2AK2 (human)): 100% |
| CS(=O)(=O)N1CCN(Cc2cc3nc(-c4cccc5[nH]ncc45)nc(N4CCOCC4)c3s2)CC1 | 100 | 100 | 100 | 100 | 100 | 100 | 100 | 100 | 100 | 100 | 100 | 100 | 100 | 100 | 100 | 100 | 100 | 100 | 100 | 100 | kinase still bound, per cent of control (TBK1 (human)): 100%; kinase still bound, per cent of control [1]: 100%; kinase still bound, per cent of control (MAP3K13 (human)): 100%; kinase still bound, per cent of control [2]: 100%; kinase still bound, per cent of control (MAP3K2 (human)): 100%; kinase still bound, per cent of control (ERBB3 (human)): 100%; kinase still bound, per cent of control (MARK3 (human)): 100%; kinase still bound, per cent of control (RET (human)): 100%; kinase still bound, per cent of control (MAP3K12 (human)): 100%; kinase still bound, per cent of control (PIK3C2B (human)): 22%; kinase still bound, per cent of control (EIF2AK2 (human)): 100% |
